Source: patent publication US20260130933A1, “PHARMACEUTICAL COMPOSITION FOR PREVENTION OR TREATMENT OF NEPHROPATHY AND/OR DIABETES MELLITUS, COMPRISING ENAVOGLIFLOZIN” (DAEWOONG PHARMACEUTICAL CO., LTD., priority 2022, published 2026)

Assay: Example 4: subgroup of patients with proteinuria (baseline UACR of 30 to 3500 g/kg) of Examples 1 to 3, percent change in UACR at week 24
Type: in vivo, human
Conditions: for UACR decrease at week 24 compared to baseline: proteinuria subgroup
Description: Among the patient groups that received the test drugs and the control drug of Examples 1 to 3, a group of patients with proteinuria (baseline UACR of 30 to 3500 g/kg) was additionally analyzed.
Among the patients in Example 1, a subgroup with baseline UACR of 30 to 3500 g/kg was classified as a group of patients with proteinuria.
Among the patients in Example 2, a subgroup with the baseline UACR of 30 to 3500 g/kg was classified as a group of patients with proteinuria.
Similarly, among the patients in Example 3, a subgroup with the baseline UACR of 30 to 3500 g/kg was classified as a group of patients with proteinuria.

[1] = week 24, Example 2 (with metformin), per-protocol set, UACR 30-3500 g/kg at baseline
[2] = week 24, Example 3 (with metformin and gemigliptin), per-protocol set, UACR 30-3500 g/kg baseline
[3] = week 24, Example 1 (monotherapy), full analysis set, UACR 30-3500 g/kg at baseline

SMILES: CCOc1ccc(Cc2cc([C@@H]3O[C@H](CO)[C@@H](O)[C@H](O)[C@H]3O)ccc2Cl)cc1 [Dapagliflozin, reference compound]
- Percent change from baseline in UACR, Mean [1]: −26.01%
- Percent change from baseline in UACR, Median [1]: −39.48%
- UACR, Mean [1]: 93.37 g/kg
- UACR, Median [1]: 45.70 g/kg
- Percent change from baseline in UACR, Mean [2]: −13.09%
- Percent change from baseline in UACR, Median [2]: −39.84%
- UACR, Mean [2]: 80.60 g/kg
- UACR, Median [2]: 43.10 g/kg

SMILES: OC[C@H]1O[C@@H](c2cc(Cc3ccc(C4CC4)cc3)c(Cl)c3c2CCO3)[C@H](O)[C@@H](O)[C@@H]1O [Enavogliflozin, (2S,3R,4R,5S,6R)-2-(7-chloro-6 (4-cyclopropylbenzyl)-2,3-dihydrobenzofuran-4-yl)-6-(hydroxymethyl)tetrahydro-2H-pyran-3,4,5-triol]
- UACR decrease at week 24 compared to baseline (dual combination therapy with metformin): 47.35%
- UACR decrease at week 24 compared to baseline (enavogliflozin administered alone): 46.06%
- UACR decrease at week 24 compared to baseline (triple combination therapy with metformin and gemigliptin): 36.03%
- UACR change, decrease compared to the dapagliflozin-administered patient group (two studies (Examples 2 and 3) combined): 20.72%
- Percent change from baseline in UACR, Difference (enavogliflozin 0.3 mg − Placebo) [3]: −50.89%
- Percent change from baseline in UACR, Mean [3]: −46.06%
- Percent change from baseline in UACR, Median [3]: −64.48%
- UACR, Mean [3]: 70.29 g/kg
- UACR, Median [3]: 26.05 g/kg
- Percent change from baseline in UACR, Difference (enavogliflozin 0.3 mg − dapagliflozin 10 mg) [1]: −21.33%
- Percent change from baseline in UACR, Mean [1]: −47.35%
- Percent change from baseline in UACR, Median [1]: −48.74%
- UACR, Mean [1]: 45.64 g/kg
- UACR, Median [1]: 27.65 g/kg
- Percent change from baseline in UACR, Difference (enavogliflozin 0.3 mg − dapagliflozin 10 mg) [2]: −22.94%
- Percent change from baseline in UACR, Mean [2]: −36.03%
- Percent change from baseline in UACR, Median [2]: −55.97%
- UACR, Mean [2]: 75.40 g/kg
- UACR, Median [2]: 46.80 g/kg
